The values below come from ChEMBL document CHEMBL4813945, “Discovery and development of novel pyrimidine and pyrazolo/thieno-fused pyrimidine derivatives as potent and orally active inducible nitric oxide synthase dimerization inhibitor with efficacy for arthritis” (Eur J Med Chem, 2021).

SMILES strings stand for the structures.

The nature of series [1]: Metabolic stability in human hepatocytes assessed as half life measured upto 120 mins by LC-MS/MS analysis. The format is ADME, cell-based, Hepatocyte.
Series [2] in a line: Metabolic stability in human hepatocytes assessed as clearance incubated up to 120 mins measured per million cells by LC-MS/MS analysis. The format is ADME, cell-based, Hepatocyte. The conditions noted are these: read-out: CLH.
Series [3] is described as follows: Metabolic stability in rat hepatocytes assessed as half life measured upto 120 mins by LC-MS/MS analysis. The format is ADME, cell-based, Hepatocyte.
Series [4] can be described thus: Metabolic stability in rat hepatocytes assessed as intrinsic clearance incubated up to 120 mins measured per million cells by LC-MS/MS analysis. Conditions: read-out: CLH. Format: ADME, cell-based, Hepatocyte.
Series [5] concerns the target T1, Cytochrome P450 1A2 (Homo sapiens, UniProt P05177).
T1 sequence (P05177 whole entry): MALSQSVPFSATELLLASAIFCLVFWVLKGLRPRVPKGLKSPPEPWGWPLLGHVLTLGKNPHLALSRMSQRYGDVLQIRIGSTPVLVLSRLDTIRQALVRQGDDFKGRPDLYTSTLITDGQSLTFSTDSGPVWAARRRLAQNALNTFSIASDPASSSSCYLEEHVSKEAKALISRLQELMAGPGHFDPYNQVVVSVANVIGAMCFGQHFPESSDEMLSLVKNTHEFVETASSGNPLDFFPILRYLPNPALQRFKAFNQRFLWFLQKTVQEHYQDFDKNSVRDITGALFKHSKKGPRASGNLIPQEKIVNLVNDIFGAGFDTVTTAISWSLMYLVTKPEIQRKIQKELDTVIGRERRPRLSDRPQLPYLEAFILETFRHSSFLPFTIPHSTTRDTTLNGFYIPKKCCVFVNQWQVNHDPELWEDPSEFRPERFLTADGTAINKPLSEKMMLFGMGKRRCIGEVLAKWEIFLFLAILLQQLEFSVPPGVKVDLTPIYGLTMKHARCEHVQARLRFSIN
As to the kind of experiment: Inhibition of CYP1A2 in human liver microsomes using Phenacetin as substrate measured after 20 mins by LC-MS/MS analysis. Format: ADME.

Series [6] has as its system RAW264.7. Put plainly: Antiinflammatory activity against mouse RAW264.7 cells assessed as inhibition of LPS-induced NO production at 10 uM preincubated for 1 hrs followed by LPS stimulation and measured after 24 hrs by Griess assay relative to control. Format: functional. Conditions: time 25 hrs. (Nitrite, measured by Griess reagent, commonly stands in for NO production.)

Series [7] concerns L02. As to the kind of experiment: Antiinflammatory activity against human L02 assessed as inhibition of LPS-induced NO production preincubated for 1 hrs followed by LPS stimulation and measured after 24 hrs by Griess assay relative to control. The format is functional, cell-based.
For series [8], the system named is RAW264.7. Put plainly: Inhibition of LPS-induced NO release in mouse RAW264.7 cells preincubated for 1 hrs followed by LPS stimulation and measured after 24 hrs by Griess reagent based assay. The format is functional, cell-based.
The target of series [9] is T2, Nitric oxide synthase, inducible (Mus musculus, UniProt P29477).
T2 sequence (P29477 whole entry): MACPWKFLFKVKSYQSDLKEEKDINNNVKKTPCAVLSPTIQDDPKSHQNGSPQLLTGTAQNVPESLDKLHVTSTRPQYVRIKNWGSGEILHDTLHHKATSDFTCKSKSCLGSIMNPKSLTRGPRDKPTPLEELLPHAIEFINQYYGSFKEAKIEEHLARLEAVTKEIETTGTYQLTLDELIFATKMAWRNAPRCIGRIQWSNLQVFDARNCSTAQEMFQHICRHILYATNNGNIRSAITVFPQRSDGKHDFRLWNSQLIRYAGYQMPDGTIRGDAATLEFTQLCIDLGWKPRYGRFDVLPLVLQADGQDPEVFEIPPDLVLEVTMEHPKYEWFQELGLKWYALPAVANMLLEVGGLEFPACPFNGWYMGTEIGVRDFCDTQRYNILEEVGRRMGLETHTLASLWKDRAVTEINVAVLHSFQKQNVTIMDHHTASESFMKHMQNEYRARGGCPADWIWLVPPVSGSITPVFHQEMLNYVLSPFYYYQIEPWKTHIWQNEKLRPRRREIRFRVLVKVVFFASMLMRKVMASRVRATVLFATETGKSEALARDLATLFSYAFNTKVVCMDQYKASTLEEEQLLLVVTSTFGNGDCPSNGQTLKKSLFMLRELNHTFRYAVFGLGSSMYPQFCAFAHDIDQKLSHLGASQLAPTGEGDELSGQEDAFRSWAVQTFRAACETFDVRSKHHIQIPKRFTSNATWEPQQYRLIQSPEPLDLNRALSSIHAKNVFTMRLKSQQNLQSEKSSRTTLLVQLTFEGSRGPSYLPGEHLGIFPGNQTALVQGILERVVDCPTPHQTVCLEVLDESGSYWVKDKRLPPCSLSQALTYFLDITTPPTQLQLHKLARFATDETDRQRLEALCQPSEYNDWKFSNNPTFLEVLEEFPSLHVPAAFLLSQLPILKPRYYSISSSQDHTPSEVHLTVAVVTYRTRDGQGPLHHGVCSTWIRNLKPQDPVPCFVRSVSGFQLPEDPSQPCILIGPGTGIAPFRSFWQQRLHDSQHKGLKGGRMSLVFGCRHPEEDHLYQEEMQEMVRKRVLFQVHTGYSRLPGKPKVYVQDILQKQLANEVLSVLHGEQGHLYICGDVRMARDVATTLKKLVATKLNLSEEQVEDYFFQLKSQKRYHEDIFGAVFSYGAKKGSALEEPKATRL
As to the kind of experiment: Inhibition of LPS induced NO-dependent iNOS activity in mouse RAW 264.7 cells preincubated for 1 hrs followed by LPS stimulation and measured after 24 hrs by Griess reagent based assay. Format: cell-based, RAW264.7.

Series [10] relates to RAW264.7. Put plainly: Cytotoxicity against LPS-induced mouse RAW 264.7 cells assessed as cell viability measured by MTT assay. Format: cell-based. (In general: Tetrazolium dyes change colour on reduction, which living cells bring about.)
For series [11], the system named is RAW264.7. As to the kind of experiment: Cytotoxicity against mouse RAW 264.7 cells assessed as cell viability by MTT assay. The format is cell-based.
The test system of series [12] is L02. Put plainly: Cytotoxicity against human L02 cells assessed as cell viability by MTT assay. Format: cell-based.
Series [13] relates to RAW264.7. As to the kind of experiment: Cytotoxicity against mouse RAW264.7 cells at 20 uM measured after 24 hrs. The format is cell-based. The conditions noted are these: raw264.7, 24 h.

In general, half-life refers to the time needed for the level to fall by half in the phase considered. `COc1ccc2[nH]c([S+]([O-])Cc3ncc(C)c(OC)c3C)nc2c1` (stereo not drawn) [OMEPRAZOLE]: the half-life worked out at 28.2 min in series [1] and 13.5 min in series [3]. Besides, the results for the hepatocyte CLint in [2] and in series [4] were 24.6 µL/min/1e6 cells and 51.4 µL/min/1e6 cells, respectively.

As usually defined, the IC50 is the concentration at which inhibition is half-maximal. In [5], `O=c1cc(-c2ccccc2)oc2ccc3ccccc3c12` [BETA-NAPHTHOFLAVONE] registered an IC50 of 0.0835 µM.

On to `COc1ccc2c(c1)[C@]13CCCC[C@@H]1[C@H](C2)N(C)CC3` [DEXTROMETHORPHAN], for which the values for the half-life in series [1] and in [3] were 14.5 min and 4.6 min, respectively. The hepatocyte CLint was 47.8 µL/min/1e6 cells in [2] and 150 µL/min/1e6 cells in series [4].

`Cc1ncc2n1-c1ccc(Cl)cc1C(c1ccccc1F)=NC2` [MIDAZOLAM]: the figures for the half-life in series [1] and in series [3] were 16.3 min and 3.9 min, respectively. Besides, the hepatocyte CLint in series [2] was determined as 42.6 µL/min/1e6 cells; in series [4], 176 µL/min/1e6 cells.

With `O=C(O)Cc1ccccc1Nc1c(Cl)cccc1Cl` [DICLOFENAC], the half-life is 9.1 min in series [1] and 13.6 min in [3]. For the same compound, the results for the hepatocyte CLint in series [2] and in series [4] were 75.8 µL/min/1e6 cells and 50.3 µL/min/1e6 cells, respectively.

Consider `CCOc1ccc(NC(C)=O)cc1` [PHENACETIN], for which the results for the half-life in series [1] and in series [3] were 43.8 min and 32.6 min, respectively. The results for the hepatocyte CLint in series [2] and in [4] were 15.8 µL/min/1e6 cells and 21.3 µL/min/1e6 cells, respectively.

For orientation: inhibition means the change of the read-out against control, counted positive when it falls. On to `COc1ccc(Nc2nc(/C=C/c3cc(OC)c(OC)c(OC)c3)nc3ccsc23)cc1`, for which the inhibition at 10 µM in series [6] is 52.5%. The IC50 in [7] was 279 µM; in [8], 10.7 µM; in [9], 5.12 µM; in series [10] it was greater than 50 µM; in series [11], greater than 50 µM; in series [12] it was 279 µM. In addition, the Activity result in series [13] is “Non-Toxic”.

With `COc1cc(/C=C/c2nc(Nc3ccc(C(F)(F)F)cc3)c3sccc3n2)cc(OC)c1OC`, in [6], the inhibition at 10 µM was determined as 55.4%. Besides, the IC50 is 436 µM in [7]; 9.36 µM in series [8]; 4.2 µM in [9]; greater than 50 µM in series [10]; greater than 50 µM in series [11]; 436 µM in [12]. Moreover, in series [13], the Activity result is recorded as “Non-Toxic”.

Regarding `COc1cc(/C=C/c2nc(NCc3ccncc3)c3sccc3n2)cc(OC)c1OC`, the inhibition at 10 µM in series [6] was found to be 76%. In addition, the IC50 in series [7] is 374 µM; in series [8], 6.35 µM; in series [9] it was 3.12 µM; in series [10], greater than 50 µM; in series [11], greater than 50 µM; in series [12] it was 374 µM. Further, the Activity result in [13] is given as “Non-Toxic”.

As to `COc1cc(/C=C/c2nc(NC3CC3)c3sccc3n2)cc(OC)c1OC`, the inhibition at 10 µM in series [6] came out at 90.7%. In addition, the 50% inhibitory concentration (IC50) in series [7] was greater than 1000 µM; in series [8] it was 6.03 µM; in series [9], 4.32 µM; in series [10] it was greater than 50 µM; in series [11], greater than 50 µM; in [12], 2360 µM. The Activity result in series [13] is given as “Non-Toxic”.
